# Results: patent US20070204353A1, “Transgenic animals and methods of monitoring hedgehog responding cells” (priority 2005, published 2007)
# Tested on: fast-dividing cells in the SVZ and SGZ
# Assay: AraC infusion (mini-osmotic pump, one week) into brain of tamoxifen-marked Gli1-CreERT2;R26R mice; marker analysis of fate-mapped lacZ+ cells
# Details: for lacZ+;GFAP+/total lacZ+ ± SD (%): end of one-week 2% AraC infusion (0 day); for lacZ+;PSA-NCAM+/total lacZ+ ± SD (%): AraC 0 day; for Dlx2 expression: after AraC treatment
# From the text: For AraC treatment, two days after TM treatment, a mini-osmotic pump (model 1007D, Duret) was implanted to infuse either saline or 2% AraC (Sigma) for one week as described (Doetsch, F. et al. (1999), Proc Natl Acad Sci USA 96: 11619-11624). Brains of mice that were sacrificed at the end of AraC or control treatment were designated as day 0 samples. For long-term survival experiments, the pump was removed one week after implantation and mice were later sacrificed at the indicated survival time. The second application of AraC was done as the first AraC treatment.
# Mice were perfused (4% paraformaldehyde (PFA)), processed for frozen sections, and stained with X-gal as described in the Joyner lab website (http://saturn.med.nyu.edu/research/dg/joynerlab). For immunofluorescent staining, dissected brains were fixed in 4% PFA overnight at 4° C. and 50 μm vibratome (Leica) sections were obtained. Free-floating sections were stained overnight at 4° C. with goat anti-galactosidase (1:500; Biogenesis) and one of the following antibodies: mouse anti-GFAP (1:500), anti-PSA-NCAM (1:300), anti-NeuN (1:200; Chemicon), anti-CCI (1:20, Calbiochem), anti-CNPase (1:150), anti-MBP (1:200, SMI), guinea pig anti-Olig2 (1:20,000; from B. Novitch), rat anti-NG2/AN2 (1:10; from C. Klein), and rabbit anti-GABA (1:500, Sigma). Secondary antibodies for double labeling were donkey anti-species conjugated with Alexa 488, Alexa 555 (1:500; Molecular Probes), or FITC (1:200; Jackson ImmunoResearch). Fluorescent images were captured in 1.5-μm optical sections using a confocal laser-scanning microscope (LSM 510, Zeiss) and processed with Adobe Photoshop. Orthogonal analysis was performed to confirm co-expression of two markers. Cells co-expressing lacZ and one of the various markers were counted and divided by total number of lacZ expressing cells in the indicated region. At least three sections through the SVZ and DG were analyzed from one mouse. Data from at least three mice were pooled together to determine the average and standard deviation (SD). T-test was performed to calculate the p-value and determine whether the results between two time points were different with statistical significance.
# Two days after TM treatment, AraC was infused for one week into the brain of Gli1-CreER^T2; R26R mice using a mini-osmotic pump.
structure (smiles),measurement,setting,value
"Nc1ccn([C@@H]2O[C@H](CO)[C@@H](O)[C@@H]2O)c(=O)n1 [AraC, cytosine arabinoside]",lacZ+;GFAP+/total lacZ+ ± SD (%),DG (SGZ),93.7±4.7%
same,lacZ+;PSA-NCAM+/total lacZ+ ± SD (%),DG,2.1 ± 3.6%
same,Dlx2 expression,RMS,greatly diminished
same,Dlx2 expression,SVZ,abolished
same,neuroblasts (PSA-NCAM immunoreactivity) in whole mounts of the lateral wall of the lateral ventricles,"end of AraC treatment (day 0), n=3",almost completely depleted
same,lacZ+;PSA-NCAM+/total lacZ+ ± SD (%),ventral SVZ,1.6 ± 2.9%
same,lacZ+;GFAP+/total lacZ+ ± SD (%),ventral SVZ,92.2±1.0%
same,labeled cells in the SVZ and DG versus control mice,"within one week after AraC removal, n=5 vs control n=4",expanded more than control mice
